The inhibition is the percentage by which the read-out fell short of the control.

Results on ten molecules are retold here after patent US20050261221A1, “Compositions and methods for enhanced delivery of compounds via transfection complexes” (priority 2004, published 2005).

Series [1] concerns vascular smooth muscle cells (VSMCs). The series can be described thus: Transfection of VSMCs with cationic phospholipid (EDOPC)-DNA complexes, β-galactosidase microplate fluorometric assay. The series is classed as cell-based, Wistar rats. As to conditions: for Effect on transfection: 0.001-0.5 μM cytochalasin B for 3 h, then DNA-lipid complexes 3 h. The method, then:
Primary vascular smooth muscle cells were obtained by removal of the thoracoabdominal aortas of Wistar rats, which were then stripped of endothelium and adventitia. Medial VSMCs were maintained in Dubecco's Modified Eagle's Medium (DMEM), 20% fetal bovine serum (FBS), 200 units/ml penicillin, 200 μg/ml streptomycin (all Gibco, Gaitherburg, Md.) at 37° C. with 5% CO2. At confluence, the cells were passaged using 0.25 mg/ml Trypsin/EDTA (Clonetics, Walkersville, Md.) and were used at passage 3-10 for these experiments.
The cells were seeded in 96-well plates at 24 h before transfection at densities to give about 80% confluence at the time of transfection. Normally, EDOPC was suspended in D-PBS at 1 mg/ml to form liposomes. Liposomes and plasmid DNA were diluted in serum-free cell culture medium to 60 μg/ml for lipid and to 20 μg/ml for DNA, and liposomes were pipetted into an equal volume of plasmid DNA solution at a 3:1 weight ratio and mixed gently. The resultant DNA-lipid complexes were incubated at room temperature for 15 min and then added to the cells that were either in medium lacking serum or medium containing 20% fetal bovine serum (FBS). At 3 h after addition of DNA-lipid complexes, except as stated otherwise, the cells were washed with PBS and fresh medium containing 20% FBS was added. Generally, the cells were incubated with free drugs in 20% FBS DMEM for the indicated duration, and then, unless otherwise described, the cells were washed with PBS and incubated with DNA-lipid complexes. For experiments involving co-treatment with taxol and colchicine, the cells were first incubated with taxol for 30 min and then colchicine was added to the medium. […] Subsequent steps were same as for the normal lipoplexes.
Cells were assayed for β-galactosidase activity 24 h after transfection with a microplate fluorometric assay, modified by inclusion of a heating step (50° C., 45 min) to inactivate endogenous enzyme activity. Following aspiration of the medium from each well, the cells were washed once with PBS and then lysed by addition of 100 μl lysis buffer (0.03% Triton X-100 in 100 mM HEPES, pH 7.8, containing 1 mM MgSO4, 10 mM KCl). The plates were placed at 50° C. for 45 min and then allowed to cool to room temperature. 10 μl 100 μM FDG (fluorescein di-β-D-galactopyranoside) was added into each well. Fluorescence was measured with a microplate fluorimeter (Model 7620, Cambridge Technology Inc.) after incubation at 37° C. for 3 h. Fluorescence intensity is proportional to β-galactosidase expression; 2000 fluorescence units corresponded approximately to 0.1 milliunit of β-galactosidase. The expression of VSMCs transfected with normal lipoplexes in absence of serum and any pretreatment was ˜0.1 milliunit per well.

The subject of series [2] is nerve growth factor (NGF) mRNA. As to conditions: reported [39]; cited from earlier work.
The conditions of series [3]: cited from earlier work.
Setting [4] is: 100 μM TLCK in fresh 20% FBS after 3 h lipoplex treatment.

Values joined by “and” are separate entries in the source; they are usually repeats but may differ in a detail not shown here. Equal entries are not always repeated. “Also recorded” adds a separate entry of the source.

Consider `COc1cc([C@@H]2c3cc4c(cc3[C@H](O)[C@H]3COC(=O)[C@H]23)OCO4)cc(OC)c1OC` [podophyllotoxin], for which the “Fold increase of transfection means ± S.D.” value in series [1] (optimal conditions: 20 μM free drug, 3 h pretreatment, 20% FBS) was 14 fold and 14 ± 5.8 fold; in series [1] (optimal conditions: 20 μM free drug, 3 h pretreatment, No serum), 26 fold and 26 ± 4.5 fold.
For the molecule `S=C(S)N1CCCC1` [PDTC, pyrrolidinedithiocarbamate], the inhibition at 10 µM in series [1] (Rattus norvegicus, VSMC, read-out: Reduction of transfection with VB-lipoplexes (inhibition of vinblastine stimulation), 10 μM PDTC in fresh 20% FBS after 3 h lipoplex treatment) worked out at 85%. Moreover, the “Transfection stimulation by VB-lipoplexes” value in series [1] (after treatment with 10 μM PDTC) was determined as 5 ×.
As for `CC[C@]1(O)C[C@@H]2CN(CCc3c([nH]c4ccccc34)[C@@](C(=O)OC)(c3cc4c(cc3OC)N(C)[C@H]3[C@@](O)(C(=O)OC)[C@H](OC(C)=O)[C@]5(CC)C=CCN6CC[C@]43[C@@H]65)C2)C1` [vinblastine], the “Effect on the level of NGF mRNA” value in series [2] is reported as “increase”. Further, the “Stimulation of transfection of SMGA-β-Gal plasmid (smooth muscle γ-actin gene promoter)” value in series [1] (CMV-IEP-β-Gal replaced with SMGA-β-Gal, preliminary result) was “not stimulated”. Also, the “Maximal stimulation of transgene expression” value in series [1] (vinblastine incorporated into the lipoplexes) is approximately 30 fold. The Solubility in chloroform entry in series [3] (chloroform) is given as “soluble”. Further, the Solubility in water result in series [3] (water) is “essentially insoluble”.
With `Cc1ccc(S(=O)(=O)N[C@@H](CCCCN)C(=O)CCl)cc1` [TLCK, Nα-p-tosyl-L-lysine chloromethyl ketone], in series [1] (setting [4]), the “Decrease of transfection of VB-lipoplexes (inhibition of vinblastine stimulation)” value is 66% and the “Decrease of transfection of normal lipoplexes” value was 50%.
As for `COC(=O)Nc1nc2ccc(C(=O)c3cccs3)cc2[nH]1` [Nocodazole, nocodazole], the “Effect on the level of NGF mRNA” value in series [2] is “increase”. Besides, the “Fold increase of transfection means ± S.D.” value stood at 14 ± 2.0 fold in series [1] (optimal conditions: 50 μM free drug, 3 h pretreatment, 20% FBS); 14 fold in series [1] (optimal conditions: 50 μM free drug, 3 h pretreatment, 20% FBS, listed as nocodazole); 31 ± 5.0 fold in series [1] (optimal conditions: 50 μM free drug, 3 h pretreatment, No serum); 31 fold in series [1] (optimal conditions: 50 μM free drug, 3 h pretreatment, No serum, listed as nocodazole).
With `CC(=O)O[C@H]1C(=O)[C@@]2(C)[C@H]([C@H](OC(=O)c3ccccc3)[C@]3(O)C[C@H](OC(=O)[C@H](O)[C@@H](NC(=O)c4ccccc4)c4ccccc4)C(C)=C1C3(C)C)[C@]1(OC(C)=O)CO[C@@H]1C[C@@H]2O` [taxol], the “Effect on colchicine's increase of NGF mRNA” value in series [2] is “suppresses”. Also, the “Effect on the stimulation of transfection by colchicine” value in series [1] (4 μM taxol 30 min, then 0.8 μg/ml colchicine added) is “blocked”. Further, the “Effect on transfection efficiency, taxol alone” value in series [1] (pretreatment with 4 μM taxol 3 h) is recorded as “no effect”. Moreover, the “Effect on the stimulation of VB-lipoplexes” value in series [1] (pretreatment with taxol) is given as “blocked”.
Turning to `CC[C@@]1([C@@H]2O[C@@H]([C@H]3O[C@@](O)(CO)[C@H](C)C[C@@H]3C)C[C@@H]2C)CC[C@H]([C@]2(C)CC[C@]3(C[C@H](O)[C@@H](C)[C@@H]([C@@H](C)[C@@H](OC)[C@H](C)C(=O)O)O3)O2)O1` [monensin], the “Fold effect on transfection relative to no pretreatment” value in series [1] (1 μM monensin for 15 min, then normal DNA-lipid complexes (FIG. 6)) worked out at 9.5 fold.
Turning to `COc1cc2c(c(OC)c1OC)-c1ccc(OC)c(=O)cc1[C@@H](NC(C)=O)CC2` [colchicine, Colchicine], the “Effect on the level of NGF mRNA” value in series [2] was “increase”. Further, the “Effect on transfection when added to cells simultaneously with lipoplexes” value in series [1] (0.05 μg/ml colchicine, simultaneous with lipoplexes, absence of serum) was “increased marginally”. In addition, the “Effect on expression when added to cells simultaneously with lipoplexes” value in series [1] (free colchicine added simultaneously with lipoplexes) is “not noticeably stimulated; also recorded: no stimulation”. In addition, the “Fold increase of transfection (β-galactosidase expression)” value in series [1] (pretreatment with 8 μg/ml free colchicine 3 h, 20% FBS) is ~23 fold and 24 fold; in series [1] (pretreatment with 8.0 μg/ml free colchicine 3 h, absence of serum), approximately 23 fold.
For `C=C1[C@@H](C)[C@H]2[C@H](Cc3ccccc3)NC(=O)[C@]23OC(=O)/C=C/[C@H](O)CCC[C@@H](C)C/C=C/[C@H]3[C@@H]1O` [cytochalasin B], in series [2], the “Effect on the level of NGF mRNA” value is given as “does not increase”. Moreover, the results for the Effect on transfection result in series [1] and in series [1] (listed as Cytochalasin B) were “No effect” and “no effect”, respectively.
With `CC[C@]1(O)C[C@H]2CN(CCc3c([nH]c4ccccc34)[C@@](C(=O)OC)(c3cc4c(cc3OC)N(C=O)[C@H]3[C@@](O)(C(=O)OC)[C@H](OC(C)=O)[C@]5(CC)C=CCN6CC[C@]43[C@@H]65)C2)C1` [Vincristine, vincristine], the “Fold increase of transfection means ± S.D.” value was determined as 39 ± 6.9 fold in series [1] (optimal conditions: 1/50 (w/w) VC/lipid incorporated in lipid, 20% FBS during 3 h incubation with complexes); 39 fold in series [1] (optimal conditions: 1/50 (w/w) VC/lipid incorporated in lipid, 20% FBS during 3 h incubation with complexes, listed as vincristine); 25 ± 5.7 fold in series [1] (optimal conditions: 1/50 (w/w) VC/lipid incorporated in lipid, No serum during 3 h incubation with complexes); 25 fold in series [1] (optimal conditions: 1/50 (w/w) VC/lipid incorporated in lipid, No serum during 3 h incubation with complexes, listed as vincristine).
